Measurements reported in PMC8351594, “Design of Novel Amphipathic α-Helical Antimicrobial Peptides with No Toxicity as Therapeutics against the Antibiotic-Resistant Gram-Negative Bacterial Pathogen, Acinetobacter Baumannii” (Journal of medicinal chemistry and drug design, 2019).
≈ marks a conversion by molar mass, not a printed value. Square brackets hold non-standard residues; d marks the D form. Peptide text beside a SMILES is read from it. Dab = NCC[C@H](N)C(=O)O; Dap = NC[C@H](N)C(=O)O

How the values were obtained:
[1] = test system: Acinetobacter baumannii MB9953; settings: Mueller-Hinton medium, 37°C, 24 h, inoculum 5 × 10^5 CFU/mL; MIC based on three sets of determinations
Description: (§1) The A. baumannii strains used in this study consisted of seven strains resistant to Polymyxin B and Colistin (antibiotics of last resort) obtained from MERCK (M89941, M89949, M89951, M89952, M89953, M89955 and M89963). The MICGM in this case is the geometric mean MIC from the seven Acinetobacter baumannii strains used in this study.
(§2) The minimal inhibitory concentration (MIC) is defined as the lowest peptide concentration that inhibited bacterial growth. MICs were measured by a standard microtiter dilution method in Mueller Hinton (MH) medium. Briefly, cells were grown overnight at 37°C in MH broth and were diluted in the same medium. […] The plates were incubated at 37°C for 24h, and the MICs were determined. The MICGM is the geometric mean of the number of MIC values.

[2] = test system: Acinetobacter baumannii MB9949; settings: Mueller-Hinton medium, 37°C, 24 h, inoculum 5 × 10^5 CFU/mL; MIC based on three sets of determinations
Description: as §1, §2

[3] = test system: Acinetobacter baumannii MB9951; settings: Mueller-Hinton medium, 37°C, 24 h, inoculum 5 × 10^5 CFU/mL; MIC based on three sets of determinations
Description: as §1, §2

[4] = test system: Acinetobacter baumannii MB9955; settings: Mueller-Hinton medium, 37°C, 24 h, inoculum 5 × 10^5 CFU/mL; MIC based on three sets of determinations
Description: as §1, §2

[5] = test system: Acinetobacter baumannii MB9963; settings: Mueller-Hinton medium, 37°C, 24 h, inoculum 5 × 10^5 CFU/mL; MIC based on three sets of determinations
Description: as §1, §2

[6] = test system: Acinetobacter baumannii MB9952; settings: Mueller-Hinton medium, 37°C, 24 h, inoculum 5 × 10^5 CFU/mL; MIC based on three sets of determinations
Description: as §1, §2

[7] = test system: Acinetobacter baumannii MB9941; settings: Mueller-Hinton medium, 37°C, 24 h, inoculum 5 × 10^5 CFU/mL; MIC based on three sets of determinations
Description: as §1, §2

[8] = test system: human red blood cells; test: Hemolytic activity (HC50) determination; settings: 1% human erythrocytes in PBS pH 7.4, 37°C, 18 h, 12 concentrations up to 1000 μg/mL, hemoglobin release at 570 nm, average of 3 replicates; estimated by extrapolation when 50% hemolysis not observed at 1000 μg/mL
Description: (§3) Peptide samples (concentrations determined by amino acid analysis) were added to 1% human erythrocytes in phosphate-buffered saline (100 mM NaCl, 80 mM Na2HPO4, 20 mM NaH2PO4, pH 7.4) and the reaction mixtures were incubated at 37°C for 18h in microtiter plates. Two-fold serial dilutions of the peptide samples were carried out. This determination was made by withdrawing aliquots from the hemolysis assays and removing unlysed erythrocytes by centrifugation (800 × g). Hemoglobin release was determined spectrophotometrically at 570 nm. The control for 100% hemolysis was a sample of erythrocytes treated with water. The control for no release of hemoglobin was a sample of 1% erythrocytes without any peptide added. […] The hemolytic activity HC50 is the peptide concentration that causes 50% hemolysis of erythrocytes after 18h. HC50 was determined from a plot of percent lysis versus peptide concentration (μM) using 12 different concentrations up to 1000 micrograms per ml for 18h at 37°C. The average of 3 replicates is used with an average variance of less than 4%. Fresh human blood was obtained from Vitalant, Denver, CO, USA.
(§4) In order to determine that we were able to eliminate hemolysis of human red blood cells, we used the most rigorous test of hemolytic activity (18h at 37°C and up to 1000 μg/mL or >350 μM of AMP). […] The HC50 value is estimated when 50% hemolysis is not observed at 1000 μg/mL by extrapolation of the plots observed in figure 3.

[9] = test system: human red blood cells
Description: as §3, §4

Structure (SMILES) | MIC MB9953 [1] [µM] | MIC MB9949 [2] [µM] | MIC MB9951 [3] [µM] | MIC MB9955 [4] [µM] | MIC MB9963 [5] [µM] | MIC MB9952 [6] [µM] | MIC MB9941 [7] [µM] | HC50 (concentration of peptide that results in 50% hemolysis) [8] [µM] | lysis of human red blood cells at 1000 μg/mL [9]
CC(=O)N[C@H](CCCCN)C(=O)N[C@H](CC(C)C)C(=O)N[C@H](CCCCN)C(=O)N[C@H](CO)C(=O)N[C@H](CC(C)C)C(=O)N[C@H](CC(C)C)C(=O)N[C@H](CCCCN)C(=O)N[C@@H](C(=O)N[C@H](CC(C)C)C(=O)N[C@H](CO)C(=O)N[C@H](C)C(=O)N[C@H](C)C(=O)N[C@H](CCCCN)C(=O)N[C@H](CCCCN)C(=O)N[C@H](CCCCN)C(=O)N[C@H](CCCCN)C(=O)N[C@H](CC(C)C)C(=O)N[C@H](C)C(=O)N[C@@H](C(=O)N[C@H](CC(C)C)C(=O)N[C@H](CC(C)C)C(=O)N[C@H](CCCCN)C(=O)N[C@H](C)C(=O)N[C@H](CC(C)C)C(=O)N[C@H](CO)C(=O)N[C@H](CO)C(N)=O)[C@H](C)O)[C@H](C)O [D103(Lys^1Ser^26-5 Lys-2)] (Ac-[dK][dL][dK][dS][dL][dL][dK][dT][dL][dS][dA][dA][dK][dK][dK][dK][dL][dA][dT][dL][dL][dK][dA][dL][dS][dS]-NH2) | 0.7 (≈ 1.98 µg/mL) | 0.7 (≈ 1.98 µg/mL) | 0.7 (≈ 1.98 µg/mL) | 0.7 (≈ 1.98 µg/mL) | 0.7 (≈ 1.98 µg/mL) | 0.7 (≈ 1.98 µg/mL) | 0.7 (≈ 1.98 µg/mL) | 134.9 | 
CC(=O)N[C@H](CCCCN)C(=O)N[C@H](CC(C)C)C(=O)N[C@@H](CN)C(=O)N[C@H](CO)C(=O)N[C@H](CC(C)C)C(=O)N[C@H](CC(C)C)C(=O)N[C@@H](CN)C(=O)N[C@@H](C(=O)N[C@H](CC(C)C)C(=O)N[C@H](CO)C(=O)N[C@@H](CN)C(=O)N[C@H](C)C(=O)N[C@H](CCCCN)C(=O)N[C@H](C)C(=O)N[C@H](C)C(=O)N[C@H](CCCCN)C(=O)N[C@H](CC(C)C)C(=O)N[C@@H](CN)C(=O)N[C@@H](C(=O)N[C@H](CC(C)C)C(=O)N[C@H](CC(C)C)C(=O)N[C@@H](CN)C(=O)N[C@H](C)C(=O)N[C@H](CC(C)C)C(=O)N[C@H](CO)C(=O)N[C@@H](CN)C(N)=O)[C@H](C)O)[C@H](C)O [D105(Lys^1-6 Dap-1)] (Ac-[dK][dL][Dap][dS][dL][dL][Dap][dT][dL][dS][Dap][dA][dK][dA][dA][dK][dL][Dap][dT][dL][dL][Dap][dA][dL][dS][Dap]-NH2) |  |  |  | 0.5 (≈ 1.31 µg/mL) |  |  |  |  | essentially no lysis
CC(=O)N[C@H](CCCCN)C(=O)N[C@H](CC(C)C)C(=O)N[C@@H](CCN)C(=O)N[C@H](CO)C(=O)N[C@H](CC(C)C)C(=O)N[C@H](CC(C)C)C(=O)N[C@@H](CCN)C(=O)N[C@@H](C(=O)N[C@H](CC(C)C)C(=O)N[C@H](CO)C(=O)N[C@@H](CCN)C(=O)N[C@H](C)C(=O)N[C@H](CCCCN)C(=O)N[C@H](C)C(=O)N[C@H](C)C(=O)N[C@H](CCCCN)C(=O)N[C@H](CC(C)C)C(=O)N[C@@H](CCN)C(=O)N[C@@H](C(=O)N[C@H](CC(C)C)C(=O)N[C@H](CC(C)C)C(=O)N[C@@H](CCN)C(=O)N[C@H](C)C(=O)N[C@H](CC(C)C)C(=O)N[C@H](CO)C(=O)N[C@H](CO)C(N)=O)[C@H](C)O)[C@H](C)O [D102(Lys^1Ser^26-5 Dab-1)] (Ac-[dK][dL][Dab][dS][dL][dL][Dab][dT][dL][dS][Dab][dA][dK][dA][dA][dK][dL][Dab][dT][dL][dL][Dab][dA][dL][dS][dS]-NH2) | 1.4 (≈ 3.76 µg/mL) | 0.7 (≈ 1.88 µg/mL) | 0.7 (≈ 1.88 µg/mL) | 0.7 (≈ 1.88 µg/mL) | 0.7 (≈ 1.88 µg/mL) | 0.7 (≈ 1.88 µg/mL) | 0.4 (≈ 1.07 µg/mL) | >708 | 
